Patent US11512069B2, “TLR7/8 antagonists and uses thereof” (Merck Patent GmbH, priority 2016, dated 2022)

Biological target: T1, TLR7 (Homo sapiens, UniProt Q9NYK1)
T1 construct: expressed in transfected cells; host or cells: HEK cells carrying TLR7 and an NF-kB reporter read with Steady-Glo
T1 sequence (Q9NYK1 27-1049): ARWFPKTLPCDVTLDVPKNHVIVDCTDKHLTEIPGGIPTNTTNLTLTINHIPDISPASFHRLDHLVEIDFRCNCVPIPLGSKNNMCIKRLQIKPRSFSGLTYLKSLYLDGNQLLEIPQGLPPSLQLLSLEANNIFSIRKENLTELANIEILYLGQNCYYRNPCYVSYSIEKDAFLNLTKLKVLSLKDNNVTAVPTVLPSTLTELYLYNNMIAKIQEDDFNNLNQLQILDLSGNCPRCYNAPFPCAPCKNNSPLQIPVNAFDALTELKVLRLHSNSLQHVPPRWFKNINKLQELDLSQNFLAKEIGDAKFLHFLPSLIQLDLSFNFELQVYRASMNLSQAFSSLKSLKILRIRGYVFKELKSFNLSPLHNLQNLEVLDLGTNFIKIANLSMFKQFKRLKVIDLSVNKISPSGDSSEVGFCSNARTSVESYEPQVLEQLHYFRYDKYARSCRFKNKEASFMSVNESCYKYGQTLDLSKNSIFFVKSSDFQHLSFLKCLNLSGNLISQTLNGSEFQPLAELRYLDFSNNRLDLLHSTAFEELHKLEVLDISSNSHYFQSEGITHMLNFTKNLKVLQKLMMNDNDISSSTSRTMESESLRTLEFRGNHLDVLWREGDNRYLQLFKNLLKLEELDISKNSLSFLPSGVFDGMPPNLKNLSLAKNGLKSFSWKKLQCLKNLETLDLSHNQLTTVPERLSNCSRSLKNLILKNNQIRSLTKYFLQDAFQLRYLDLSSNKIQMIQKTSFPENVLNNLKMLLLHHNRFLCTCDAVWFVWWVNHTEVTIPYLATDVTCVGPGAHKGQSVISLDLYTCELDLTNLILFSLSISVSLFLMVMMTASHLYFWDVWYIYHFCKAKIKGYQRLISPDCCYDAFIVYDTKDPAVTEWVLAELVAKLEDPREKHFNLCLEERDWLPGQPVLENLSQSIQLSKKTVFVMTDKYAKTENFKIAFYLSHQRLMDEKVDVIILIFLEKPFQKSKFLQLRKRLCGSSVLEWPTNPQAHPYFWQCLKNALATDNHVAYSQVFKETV
Experiment: HEK Cell Assay (TLR7/NFKb HEK reporter cells, Steady-Glo)
Type: cell-based
Conditions: compound 30 min, then R*48 agonist 5 hours, Steady-Glo readout, read-out: Potency
Outline: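 TLR7/NF-κB HEK reporter cells cultured 24 h, then pre-incubated 30 min with compound before adding R*48 agonist. Luciferase read by Steady-Glo luminescence after 5 h.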

| IC50 | SMILES |
| --- | --- |
| < 1 µM | C[C@@H]1C[C@H](c2ccc(C#N)c3ncccc23)CN(C(=O)C[C@@H]2CCN(C)CC2(F)F)C1 [Compound 92, 5-((3R,5R)-1-[2-((S)-3,3-Difluoro-1-methyl-piperidin-4-yl)-acetyl]-5-methyl-piperidin-3-yl}-quinoline-8-carbonitrile] |
| < 1 µM | Cc1ccc([C@H]2C[C@H](C)CN(C(=O)CC3CCN(C)CC3)C2)c2cccnc12 [Compound 83, 1-[(3S,5R)-3-Methyl-5-(8-methyl-quinolin-5-yl)-piperidin-1-yl]-2-(1-methyl-piperidin-4-yl)-ethanone] |
| < 1 µM | CC1CC(c2ccc(C(F)(F)F)c3ncccc23)CN(C(=O)CC2CC3CCC(C2)N3C)C1 (stereo not drawn) [Compound 18, 2-(8-Methyl-8-aza-bicyclo[3.2.1]oct-3-yl)-1-[3-methyl-5-(8-trifluoromethyl-quinolin-5-yl)-piperidin-1-yl]-ethanone] |
| < 1 µM | C[C@@H]1C[C@H](c2ccc(C#N)c3ncccc23)CN(C(=O)CN2CCN(C)CC2)C1 (relative stereo) [Compound 29] |
| > 20 µM | C[C@@H]1C[C@H](c2ccc(C#N)c3ncccc23)CN(C(=O)CC(F)(F)F)C1 (relative stereo) [Compound 26] |
| < 1 µM | C[C@@H]1C[C@H](c2ccc(C(F)(F)F)c3ncccc23)CN(C(=O)CCN2CCN(C)CC2)C1 [Compound 44, 3-(4-Methyl-piperazin-1-yl)-1-[(3R,5R)-3-methyl-5-(8-trifluoromethyl-quinolin-5-yl)-piperidin-1-yl]-propan-1-one] |
| 1 to 20 µM | C[C@@H]1C[C@H](c2ccc(C#N)c3ncccc23)CN(CC(=O)NCCN2CCN(C)CC2)C1 (relative stereo) [Compound 72, cis-2-[3-(8-Cyano-quinolin-5-yl)-5-methyl-piperidin-1-yl]-N-[2-(4-methyl-piperazin-1-yl)-ethyl]-acetamide] |
| > 20 µM | CNC(=O)CCN1CC(C)CC(c2ccc(C#N)c3ncccc23)C1 (stereo not drawn) [Compound 50] |
| > 20 µM | COCCN[C@H]1C[C@@H](C)C[C@H](c2ccc(C(F)(F)F)c3nccnc23)C1 [Compound 150, (1S,3S,5S)—N-(2-methoxyethyl)-3-methyl-5-(8-(trifluoromethyl)quinoxalin-5-yl)cyclohexanamine] |
| 1 to 20 µM | COc1ncc([C@@H]2C[C@@H](C)CN(C(=O)CC3CCN(C)CC3)C2)c2cccnc12 [Compound 88, 1-[(3S,5R)-3-(8-Methoxy-[1,7]naphthyridin-5-yl)-5-methyl-piperidin-1-yl]-2-(1-methyl-piperidin-4-yl)-ethanone] |
| 1 to 20 µM | COCCN[C@H]1C[C@@H](C)C[C@@H](c2ccc(C(F)(F)F)c3ncccc23)C1 [Compound 153, (1S,3S,5R)—N-(2-methoxyethyl)-3-methyl-5-(8-(trifluoromethyl)quinolin-5-yl)cyclohexanamine] |
| < 1 µM | C[C@@H]1C[C@H](c2ccc(C#N)c3ncccc23)CN(C(=O)CC2C3CC2CN(C)C3)C1 (stereo partly drawn) [Compound 93, 5-[(3R,5R)-5-methyl-1-[2-(3-methyl-3-azabicyclo[3.1.1]heptan-6-yl)acetyl]-3-piperidyl]quinoline-8-carbonitrile] |
| 1 to 20 µM | C[C@H]1C[C@@H](NC(=O)[C@H](N)C(F)(F)F)C[C@H](c2ccc(C#N)c3nccnc23)C1 (racemic) [Compound 145, (2R)-2-amino-N-((1,cis-3cis-5,trans)-3-(8-cyanoquinoxalin-5-yl)-5-methylcyclohexyl)-3,3,3-trifluoropropanamide] |
| 1 to 20 µM | CC1CC(c2ccc(C(F)(F)F)c3ncccc23)CN(c2ncco2)C1 (stereo not drawn) [Compound 59, 5-(5-Methyl-1-oxazol-2-yl-piperidin-3-yl)-8-trifluoromethyl-quinoline] |
| > 20 µM | C[C@@H]1C[C@@H](c2ccc(OC(F)(F)F)c3ncccc23)CN(C(=O)CN2CCN(C)CC2)C1 [Compound 104, 2-(4-Methyl-piperazin-1-yl)-1-[(3R,5S)-3-methyl-5-(8-trifluoromethoxy-quinolin-5-yl)-piperidin-1-yl]-ethanone] |
